Starred links: 1 amine or outer side, 2 acyl side, 3 side chain; linkers in the order of their positions; H or OH if unused. Positions of bridges follow the written chain, without caps; N, C: chain ends. Non-standard residues stand in square brackets, D forms with d. Residues, ends and D or L forms follow the SMILES beside them. *: point of attachment. hPhe(3-Cl-4-CF3) = N[C@@H](CCc1ccc(C(F)(F)F)c(Cl)c1)C(=O)O; NMePhe(4-Me) = CN[C@@H](Cc1ccc(C)cc1)C(=O)O; NMedβ3hAla = C[C@H](CC(=O)[*:2])N(C)[*:1]; NMePhe(2-F) = CN[C@@H](Cc1ccccc1F)C(=O)O; hPhe(4-F) = N[C@@H](CCc1ccc(F)cc1)C(=O)O; NMeGly(cPent) = CN[C@H](C(=O)O)C1CCCC1; Phe(3-I) = N[C@@H](Cc1cccc(I)c1)C(=O)O; Phe(2-Me) = Cc1ccccc1C[C@H](N)C(=O)O; NMeGly(cBu) = CN[C@H](C(=O)O)C1CCC1; NMeCha = CN[C@@H](CC1CCCCC1)C(=O)O; NMeChg = CN[C@H](C(=O)O)C1CCCCC1; NMeI = CC[C@H](C)[C@H](NC)C(=O)O; NMeD = CN[C@@H](CC(=O)O)C(=O)O; NMeL = CN[C@@H](CC(C)C)C(=O)O; NMeV = CN[C@H](C(=O)O)C(C)C; Ac6c = NC1(C(=O)O)CCCCC1; Iva = CC[C@](C)(N)C(=O)O; NMeA = CN[C@@H](C)C(=O)O; NMeAib = CNC(C)(C)C(=O)O; Piperidide = C1CCN(*)CC1; Ac5c = NC1(C(=O)O)CCCC1; Aze = O=C(O)[C@@H]1CCN1; Sar = CNCC(=O)O
Experiments:
[1] = molecular target: T1, Kras and SOS1 (biotin-tagged human Kras loaded with GDP, His-tagged human SOS1) (Homo sapiens, UniProt P01116, G12D); experiment: Protein-protein interaction inhibition between Kras and SOS1 (KrasGl2D-SOS PPI) using AlphaScreen; assay type: binding; conditions: AlphaScreen; biotin-tagged human Kras loaded with GDP, His-tagged human SOS1; read-out: KRAS G12D-SOS PPI IC50
T1 construct: made in house; host or cells: E. coli (stated for Kras only)
T1 sequence (P01116 1-188 isoform P01116-2 G12D): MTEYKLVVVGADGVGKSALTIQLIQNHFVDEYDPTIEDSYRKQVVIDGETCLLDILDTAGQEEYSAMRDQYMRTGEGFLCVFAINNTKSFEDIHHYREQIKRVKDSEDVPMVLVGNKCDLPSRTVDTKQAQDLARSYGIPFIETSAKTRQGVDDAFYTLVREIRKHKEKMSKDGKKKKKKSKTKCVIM
In short: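 Kras was produced in E. coli, purified, then loaded with GDP. It was paired via streptavidin acceptor beads with His-SOS1 held on nickel donor beads, and proximity signal at 520-620 nm was read after 680 nm illumination.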

[2] = tested on: Human pancreatic cancer cell line AsPC-1; experiment: Measurement of AsPC-1 cell growth inhibition (AsPC-1 CGI); assay type: cell-based; conditions: 96 h
In short: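 AsPC-1 cells in 15% FBS RPMI-1640 were exposed to test compound for 96 hours at 37° C, with CellTiter-Glo as endpoint.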

Structure (SMILES)	IC50 [1] [nM]	IC50 [2] [nM]
CC[C@H](C)[C@@H]1NC(=O)[C@H](C2CCC2)N(C)C(=O)C[C@@H](C(=O)N2CCCCC2)N(C)C(=O)[C@H](C2CCCCC2)N(C)C(=O)C2(CCCC2)NC(=O)[C@@H]2CCCN2C(=O)[C@H](CCc2ccc(C(F)(F)F)c(Cl)c2)NC(=O)CN(C)C(=O)[C@H](CC2CCCCC2)N(C)C(=O)CN(C)C(=O)CN(C)C1=O [Compound 562] ([NMeGly(cBu)]I[Sar][Sar][NMeCha][Sar][hPhe(3-Cl-4-CF3)]P[Ac5c][NMeChg][NMeD]-Piperidide; lactam N-11)	0.56	50 to 100
CC[C@H](C)[C@@H]1NC(=O)[C@H](CC(C)C)N(C)C(=O)C[C@@H](C(=O)N(C)C)N(C)C(=O)[C@H](C2CCCC2)N(C)C(=O)C2(CCCC2)NC(=O)[C@H](C)NC(=O)[C@H](CCc2ccc(C(F)(F)F)c(Cl)c2)NC(=O)CN(C)C(=O)[C@H](CC2CCCCC2)N(C)C(=O)[C@@H]2CCN2C(=O)[C@H](C)N(C)C1=O [Compound 575] ([NMeL]I[NMeA][Aze][NMeCha][Sar][hPhe(3-Cl-4-CF3)]A[Ac5c][NMeGly(cPent)][NMeD]-NMe2; lactam N-11)	0.56	100 to 500
CC[C@H](C)[C@@H]1NC(=O)[C@H](CC(C)C)N(C)C(=O)C[C@@H](C(=O)N2CCCCC2)N(C)C(=O)[C@H](CC(C)C)NC(=O)C(C)(C)N(C)C(=O)[C@H](Cc2ccccc2C)NC(=O)[C@H](Cc2cccc(I)c2)NC(=O)CN(C)C(=O)[C@H](Cc2ccc(C)cc2)N(C)C(=O)CN(C)C(=O)CN(C)C1=O [Compound 596] ([NMeL]I[Sar][Sar][NMePhe(4-Me)][Sar][Phe(3-I)][Phe(2-Me)][NMeAib]L[NMeD]-Piperidide; lactam N-11)	34	> 500
CC[C@H](C)[C@@H]1NC(=O)[C@H](CC(C)C)N(C)C(=O)C[C@@H](C(=O)N2CCCCC2)N(C)C(=O)[C@H](C(C)C)N(C)C(=O)C2(CCCCC2)NC(=O)[C@@H]2CCCN2C(=O)[C@H](CCc2ccc(C(F)(F)F)c(Cl)c2)NC(=O)CN(C)C(=O)[C@H](CC2CCCCC2)N(C)C(=O)CN(C)C(=O)CN(C)C1=O [Compound 600] ([NMeL]I[Sar][Sar][NMeCha][Sar][hPhe(3-Cl-4-CF3)]P[Ac6c][NMeV][NMeD]-Piperidide; lactam N-11)	4.5	100 to 500
CC[C@H](C)[C@@H]1NC(=O)[C@H](CC(C)C)N(C)C(=O)C[C@@H](C)N(C)C(=O)[C@H](C(C)C)N(C)C(=O)C2(CCCC2)NC(=O)[C@@H]2CCCN2C(=O)[C@H](CCc2ccc(C(F)(F)F)c(Cl)c2)NC(=O)CN(C)C(=O)[C@H](CC2CCCCC2)N(C)C(=O)CN(C)C(=O)CN(C)C1=O [Compound 608] (cyclo([Ac5c][NMeV][NMedβ3hAla][NMeL]I[Sar][Sar][NMeCha][Sar][hPhe(3-Cl-4-CF3)]P))	5.9	50 to 100
CC[C@H](C)[C@@H]1NC(=O)[C@H](CC(C)C)N(C)C(=O)C[C@@H](C(=O)N(C)C)N(C)C(=O)[C@H]([C@@H](C)CC)N(C)C(=O)C2(CCCC2)NC(=O)[C@H](Cc2ccccc2F)N(C)C(=O)[C@H](CCc2ccc(C(F)(F)F)c(Cl)c2)NC(=O)CN(C)C(=O)[C@H](Cc2ccc(C)cc2)N(C)C(=O)[C@@H]2CCN2C(=O)[C@H](C)N(C)C1=O [Compound 616] ([NMeL]I[NMeA][Aze][NMePhe(4-Me)][Sar][hPhe(3-Cl-4-CF3)][NMePhe(2-F)][Ac5c][NMeI][NMeD]-NMe2; lactam N-11)	3.9	50 to 100
CC[C@H](C)[C@@H]1NC(=O)[C@H](C)N(C)C(=O)C[C@@H](C(=O)N2CCCCC2)N(C)C(=O)[C@H](C2CCCCC2)N(C)C(=O)C2(CCCC2)NC(=O)[C@@H]2CCCN2C(=O)[C@H](CCc2ccc(F)cc2)NC(=O)CN(C)C(=O)[C@H](CC2CCCCC2)N(C)C(=O)CN(C)C(=O)CN(C)C1=O [Compound 618] ([NMeA]I[Sar][Sar][NMeCha][Sar][hPhe(4-F)]P[Ac5c][NMeChg][NMeD]-Piperidide; lactam N-11)	2.4	100 to 500
CC[C@H](C)[C@@H]1NC(=O)[C@H](CC(C)C)N(C)C(=O)C[C@@H](C(=O)N2CCCCC2)N(C)C(=O)[C@H](C(C)C)N(C)C(=O)[C@](C)(CC)NC(=O)[C@@H]2CCCN2C(=O)[C@H](CCc2ccc(C(F)(F)F)c(Cl)c2)NC(=O)CN(C)C(=O)[C@H](CC2CCCCC2)N(C)C(=O)CN(C)C(=O)CN(C)C1=O [Compound 620] ([NMeL]I[Sar][Sar][NMeCha][Sar][hPhe(3-Cl-4-CF3)]P[Iva][NMeV][NMeD]-Piperidide; lactam N-11)	11	100 to 500
